Patent US7166611B2, “Pharmaceutical compositions having appetite suppressant activity” (priority 1997, dated 2007)

What was measured:
Assay type in all cases: in vivo, rat
[1] = tested on: male Wistar rats; assay: Example 44 single oral dose study: food consumption
Procedure: (§1) Sample 1 to 3 were each administered as a single oral dose to male Wistar rats. Two additional control groups received vehicle (distilled water or DMSO). Orally administered fenfluramine (7.5 mg/kg) was included as a reference standard.
(§2) Fifty-five male Wistar rats were used for the study.
(§3) Bodyweights, food consumption (food hopper weight) and water consumption (bottle weight) were recorded daily at the same time each day from the day of arrival until the termination of the study.
(§4) On Day 1, the rats received a single oral (gavage) dose according to the following table:
(§5) Groups 1–8 were dosed using a constant dose volume of 10 ml/kg and groups 9–12 were dosed using a dose volume of 1 ml/kg.
(§6) Food and water consumption were also measured at […] after dosing on Day 1.
(§7) The post-dose food and water consumption measurements and bodyweights at each time-point for the P57-treated animals were compared with those for the relevant, similarly-treated vehicle control group using analysis of variance followed by Williams' test for comparisons with controls.
(§8) The data for the fenfluramine-treated animals was compared with that for the vehicle-treated control group using Student's t test.

[2] = Example 44 single oral dose study: bodyweight
Procedure: as §1, §2, §3, §4, §5, §7, §8

[3] = tested on: male Wistar rats; assay: Example 44 single oral dose study: liver histopathology; details: for Liver (ORO stain): Hepatocyte fat - centrilobular(Total) / Liver (ORO stain): Hepatocyte fat - centrilobular, Minimal / Liver (ORO stain): No abnormalities detected / Liver: Hepatocyte necrosis - focal (Total) / Liver: Hepatocyte necrosis - focal, Minimal / Liver: No abnormalities detected (incidence) / Liver: Parenchymal inflammatory cell foci (Total) / Liver: Parenchymal inflammatory cell foci, Minimal / Liver: Portal leucocytes (Total) / Liver: Portal leucocytes, Minimal / Liver: Portal lymphoid infiltration (Total) / Liver: Portal lymphoid infiltration, Minimal: 5 examined
Text: Following the measurements of Day 8, the animals were killed by carbon dioxide asphyxiation, and the livers excised and placed in 10% buffered formalin, prior to histology.
Paraffin wax sections of each liver were taken at 4–5 μm and stained with haematoxylin and eosin. Additional sections were cut on a cryostat at 12 μm and stained for fat with Oil Red O (ORO).
Histological examination was restricted to the liver.

[4] = tested on: male Wistar rats; assay: Example 44 single oral dose study: water consumption
Procedure: as §1, §2, §3, §4, §5, §6, §7, §8

[5] = tested on: rats; assay: Bioassay of chromatographic fractions for appetite suppressant activity; details: bioassay of fractions from silica gel chromatography
Text: The extract may be prepared from plant material such as the stems and roots of said plants of the genus Trichocaulon or of the genus Hoodia. The genus Trichocaulon and the genus Hoodia include succulent plants growing in arid regions such as are found in Southern Africa. In one application of the invention, the active appetite suppressant extract is obtained from the species Trichocaulon piliferum. The species Trichocaulon officinale may also be used to provide an active appetite suppressant extract. In another application of the invention, the active appetite suppressant extract may be obtained from the species Hoodia currorii, Hoodia gordonii or Hoodia lugardii.
The partially purified active extract may be dissolved in methanol, and may be further fractionated by column chromatography, employing silica gel as an adsorption medium and a chloroform/30% methanol mixture as an eluent. A plurality of different fractions may be obtained, and each may be evaluated, by suitable bioassaying procedures, to determine the appetite suppressant activity thereof.
A fraction having appetite suppressant activity may preferably be further fractionated such as by column chromatography using silica gel as an adsorption medium and a 9:1 chloroform:methanol solvent, and the resultant sub-fractions bioassayed for their appetite suppressant activity. […]

[6] = 2.5 mg/kg single oral dose on Day 1
[7] = 5.0 mg/kg single oral dose on Day 1
[8] = 2.5 and 5.0 mg/kg single oral dose

Substance: 3-0-[-β-D-thevetopyranosyl-(1→4)-β-D-cymaropyranosyl-(1→4)-β-D-cymaropyranosyl]-12β-0-tigloyloxy-14-hydroxy-14β-pregn-5-en-20-one [Compound (1)]
- Group mean food consumption (g ± sd) between Days: 1–2 ([1]; 2.5 mg/kg single oral dose): 26.8 ± 3.33 g
- Group mean food consumption (g ± sd) between Days: 2–3 ([1]; 2.5 mg/kg single oral dose): 29.1 ± 3.43 g
- Group mean food consumption (g ± sd) between Days: 3–4 ([1]; 2.5 mg/kg single oral dose): 31.7 ± 3.08 g
- Group mean food consumption (g ± sd) between Days: 4–5 ([1]; 2.5 mg/kg single oral dose): 34.0 ± 2.95 g
- Group mean food consumption (g ± sd) between Days: 5–6 ([1]; 2.5 mg/kg single oral dose): 34.4 ± 4.32 g
- Group mean food consumption (g ± sd) between Days: 6–7 ([1]; 2.5 mg/kg single oral dose): 33.1 ± 4.11 g
- Group mean food consumption (g ± sd) between Days: 7–8 ([1]; 2.5 mg/kg single oral dose): 34.8 ± 3.71 g
- Group mean food consumption (g ± sd) between Days: 1–2 ([1]; 5.0 mg/kg single oral dose): 22.1 ± 2.19 g
- Group mean food consumption (g ± sd) between Days: 2–3 ([1]; 5.0 mg/kg single oral dose): 21.0 ± 3.07 g
- Group mean food consumption (g ± sd) between Days: 3–4 ([1]; 5.0 mg/kg single oral dose): 27.6 ± 5.26 g
- Group mean food consumption (g ± sd) between Days: 4–5 ([1]; 5.0 mg/kg single oral dose): 30.5 ± 3.33 g
- Group mean food consumption (g ± sd) between Days: 5–6 ([1]; 5.0 mg/kg single oral dose): 33.0 ± 3.16 g
- Group mean food consumption (g ± sd) between Days: 6–7 ([1]; 5.0 mg/kg single oral dose): 32.4 ± 3.25 g
- Group mean food consumption (g ± sd) between Days: 7–8 ([1]; 5.0 mg/kg single oral dose): 33.0 ± 3.84 g
- duration of reduction in food consumption ([1]; 5.0 mg/kg single oral dose): 48 hours post-dose
- food consumption versus vehicle-treated animals ([1]; 5.0 mg/kg single oral dose): statistically significant reductions in food consumption
- Group mean bodyweight (g ± sd) on Day: 2 [2, 6]: 191.2 ± 11.15 g
- Group mean bodyweight (g ± sd) on Day: 3 [2, 6]: 200.0 ± 11.25 g
- Group mean bodyweight (g ± sd) on Day: 4 [2, 6]: 209.6 ± 12.28 g
- Group mean bodyweight (g ± sd) on Day: 5 [2, 6]: 219.6 ± 12.95 g
- Group mean bodyweight (g ± sd) on Day: 6 [2, 6]: 229.4 ± 13.69 g
- Group mean bodyweight (g ± sd) on Day: 7 [2, 6]: 238.4 ± 14.50 g
- Group mean bodyweight (g ± sd) on Day: 8 [2, 6]: 247.0 ± 14.35 g
- Group mean bodyweight (g ± sd) on Day: 2 [2, 7]: 192.0 ± 9.93 g
- Group mean bodyweight (g ± sd) on Day: 3 [2, 7]: 192.4 ± 9.84 g
- Group mean bodyweight (g ± sd) on Day: 4 [2, 7]: 201.0 ± 11.27 g
- Group mean bodyweight (g ± sd) on Day: 5 [2, 7]: 209.4 ± 12.70 g
- Group mean bodyweight (g ± sd) on Day: 6 [2, 7]: 219.8 ± 11.86 g
- Group mean bodyweight (g ± sd) on Day: 7 [2, 7]: 228.2 ± 12.28 g
- Group mean bodyweight (g ± sd) on Day: 8 [2, 7]: 236.0 ± 13.95 g
- effects on bodyweights [2, 8]: No statistically significant effects on bodyweights
- Liver (ORO stain): Hepatocyte fat - centrilobular(Total) ([3]; Group 9, 2.5 mg/kg): 2
- Liver (ORO stain): Hepatocyte fat - centrilobular, Minimal ([3]; Group 9, 2.5 mg/kg): 2
- Liver (ORO stain): No abnormalities detected ([3]; Group 9, 2.5 mg/kg): 3
- Liver: Hepatocyte necrosis - focal (Total) ([3]; Group 9, 2.5 mg/kg): 1
- Liver: Hepatocyte necrosis - focal, Minimal ([3]; Group 9, 2.5 mg/kg): 1
- Liver: No abnormalities detected (incidence) ([3]; Group 9, 2.5 mg/kg): 0
- Liver: Parenchymal inflammatory cell foci (Total) ([3]; Group 9, 2.5 mg/kg): 0
- Liver: Parenchymal inflammatory cell foci, Minimal ([3]; Group 9, 2.5 mg/kg): 0
- Liver: Portal leucocytes (Total) ([3]; Group 9, 2.5 mg/kg): 1
- Liver: Portal leucocytes, Minimal ([3]; Group 9, 2.5 mg/kg): 1
- Liver: Portal lymphoid infiltration (Total) ([3]; Group 9, 2.5 mg/kg): 5
- Liver: Portal lymphoid infiltration, Minimal ([3]; Group 9, 2.5 mg/kg): 5
- Liver (ORO stain): Hepatocyte fat - centrilobular(Total) ([3]; Group 10, 5 mg/kg): 2
- Liver (ORO stain): Hepatocyte fat - centrilobular, Minimal ([3]; Group 10, 5 mg/kg): 2
- Liver (ORO stain): No abnormalities detected ([3]; Group 10, 5 mg/kg): 3
- Liver: Hepatocyte necrosis - focal (Total) ([3]; Group 10, 5 mg/kg): 0
- Liver: Hepatocyte necrosis - focal, Minimal ([3]; Group 10, 5 mg/kg): 0
- Liver: No abnormalities detected (incidence) ([3]; Group 10, 5 mg/kg): 1
- Liver: Parenchymal inflammatory cell foci (Total) ([3]; Group 10, 5 mg/kg): 0
- Liver: Parenchymal inflammatory cell foci, Minimal ([3]; Group 10, 5 mg/kg): 0
- Liver: Portal leucocytes (Total) ([3]; Group 10, 5 mg/kg): 0
- Liver: Portal leucocytes, Minimal ([3]; Group 10, 5 mg/kg): 0
- Liver: Portal lymphoid infiltration (Total) ([3]; Group 10, 5 mg/kg): 4
- Liver: Portal lymphoid infiltration, Minimal ([3]; Group 10, 5 mg/kg): 4
- histological examination of the liver ([3]; all doses tested, single oral dose, livers taken Day 8): No treatment-related changes were detected
- Group mean water consumption (g ± sd) between Days: 1–2 ([4]; 2.5 mg/kg single oral dose): 32.2 ± 4.01 g
- Group mean water consumption (g ± sd) between Days: 2–3 ([4]; 2.5 mg/kg single oral dose): 36.1 ± 12.42 g
- Group mean water consumption (g ± sd) between Days: 3–4 ([4]; 2.5 mg/kg single oral dose): 38.3 ± 11.71 g
- Group mean water consumption (g ± sd) between Days: 4–5 ([4]; 2.5 mg/kg single oral dose): 41.5 ± 16.60 g
- Group mean water consumption (g ± sd) between Days: 5–6 ([4]; 2.5 mg/kg single oral dose): 34.7 ± 7.57 g
- Group mean water consumption (g ± sd) between Days: 6–7 ([4]; 2.5 mg/kg single oral dose): 33.0 ± 4.20 g
- Group mean water consumption (g ± sd) between Days: 7–8 ([4]; 2.5 mg/kg single oral dose): 35.3 ± 8.70 g
- Group mean water consumption (g ± sd) between Days: 1–2 ([4]; 5.0 mg/kg single oral dose): 33.9 ± 2.40 g
- Group mean water consumption (g ± sd) between Days: 2–3 ([4]; 5.0 mg/kg single oral dose): 31.5 ± 8.12 g
- Group mean water consumption (g ± sd) between Days: 3–4 ([4]; 5.0 mg/kg single oral dose): 35.1 ± 3.82 g
- Group mean water consumption (g ± sd) between Days: 4–5 ([4]; 5.0 mg/kg single oral dose): 37.7 ± 5.99 g
- Group mean water consumption (g ± sd) between Days: 5–6 ([4]; 5.0 mg/kg single oral dose): 39.5 ± 7.78 g
- Group mean water consumption (g ± sd) between Days: 6–7 ([4]; 5.0 mg/kg single oral dose): 37.4 ± 11.07 g
- Group mean water consumption (g ± sd) between Days: 7–8 ([4]; 5.0 mg/kg single oral dose): 37.8 ± 6.42 g
- effects on water consumption [4, 8]: No statistically significant effects on water consumption
- appetite suppressant activity [5]: marked appetite suppressant activity
